Test results: patent US9315451B2, “Tetracycline compounds” (priority 2009, dated 2016)
Like-named read-outs stand apart in the source and are kept apart here.

Legend:
Assay type in all cases: in vivo
[1] = test system: Uropathogenic E. coli EC200; assay: Murine kidney infection model, uropathogenic E. coli EC200; settings: BALB/c mice; for log reduction at 2 mg/kg: PO 2 mg/kg at 12 and 24 hours post infection
Experimental: (§1) Kidney Infection Models for Uropathogenic E. coli EC200 and K. pneumoniae ESBL Isolate KP453
Compounds were tested in a BALB/c murine kidney infection model challenged with tetracycline-resistant E. coli strain uropathogenic […] via intravenous injection. […] For IV administration test compound was dosed at 3 mg/kg. Thirty-six hours following initiation of treatment, mice were euthanized and bacterial reduction in the kidney was quantified by plating kidney homogenates. Results are reported in Table D as log10 reduction in colony forming units (CFUs) in the kidney versus untreated controls (receiving no test compound).

[2] = test system: K. pneumoniae ESBL Isolate KP453; assay: Murine kidney infection model, K. pneumoniae ESBL isolate KP453; settings: BALB/c mice; for log reduction at 50 mg/kg: Klebsiella pneumoniae, po, 36 h, PO 50 mg/kg at 9 and 24 hours post infection, read-out: KP453 ESBL UTI PO, log10 reduction in CFUs in the kidney versus untreated controls
Experimental: as §1
Compounds were also tested in BALB/c murine kidney infection model challenged with levofloxacin-resistant, ESBL^+ strain KP453 via intravenous injection with 2% carageenen. At 9 and 24 hours post infection mice were treated orally with 50 mg/kg of test compound. For IV administration, test compounds were dosed at 20 mg/kg. At 36 hours following initiation of treatment, mice were euthanized and bacterial reduction in the kidney was quantified by plating homogenates. Results are reported in Table D as log10 reduction in colony forming units (CFUs) in the kidney versus untreated controls (receiving no test compound).

[3] = test system: S. aureus Smith (ATCC 13709); assay: Mouse systemic infection (septicemia) model, S. aureus Smith; settings: Staphylococcus aureus, CD-1 female mice; for responders at 3 mg/kg: ATCC13709, iv, IV 3 mg/kg one hour post infection, read-out: SA Smith septicemia survival IV (3 mg/kg); for responders at 3 mg/kg / responders at 30 mg/kg: 48 h, survival at 48 hours; for responders at 30 mg/kg: ATCC13709, po, PO 30 mg/kg one hour post infection, read-out: SA Smith septicemia survival PO (30 mg/kg); for ED50: ATCC13709, dose that prevents 50% of the mice from death, 48 hours
Experimental: Mouse Systemic Infection Protocol-S. aureus Smith Septicemia
Compounds were screened for antibacterial activity in vivo in a mouse systemic infection (septicemia) model. In the model, CD-1 female mice (18-22 grams) were injected IP with a S. aureus Smith (ATCC 13709) inoculum that results in 0% survival within 24 to 48 hours. The bacterial dose required to achieve this effect was previously established through virulence studies. At one hour post infection, mice received either […] IV or […] PO. Typically, six mice were treated per dose group. Animal survival was assessed and recorded for 48 hours. Percent survival at 48 hours was recorded and PD50 (mg/kg) was determined for each compound tested.

[4] = Pharmacokinetic studies in rats; settings: rat, plasma, male Sprague Dawley rats, fasted; for clearance: read-out: Cl, IV Rat PK; for bioavailability: oral 10 mg/kg vs IV 1 mg/kg, read-out: % F (oral bioavailability), Oral Rat PK; for Cmax: read-out: Cmax, IV Rat PK
Experimental: Pharmacokinetic Studies in Rats Test compounds were evaluated in fasted (no food for 18 hours prior to dosing) male Sprague Dawley rats (3 animals per group) by administration of 1 mg/kg intravenously into the jugular vein and […] by oral gavage. Ten plasma samples were drawn for each dosing route up to 24 hours into heparin-coated vacutainer tubes. The plasma concentrations of the test compounds were quantified by LC/MS/MS using an internal standards. WinNONLIN was used to determine PK parameters ±standard deviation (AUC, Cmax, CL, Vss and % oral bioavailabilty (% F) and are set forth in Table F.

Monkey PK = settings: cynomolgus monkey, plasma, cynomolgus monkeys
Experimental: Compounds S24-9-23 and S16-10-161 were evaluated in 3 non-naïve cynomolgus monkeys. Each animal received a single IV dose of 1 mg/kg and after a 7-day washout, received a single PO dose of 10 mg/kg. Nine to ten plasma samples were drawn for each dosing route up to 24 hours into heparin-coated vacutainer tubes. Dose formulations were verified with a 5-point calibration curve. The plasma concentration of the compound was quantified by LC/MS/MS using an internal standard.

[5] = Escherichia coli, po, 36 h, read-out: EC200 UTI PO, log10 reduction in CFUs in the kidney versus untreated controls
[6] = IV 1 mg/kg, read-out: AUC, IV Rat PK
[7] = oral gavage 10 mg/kg, read-out: AUC, Oral Rat PK
[8] = IV, read-out: SA Smith septicemia PD50 IV
[9] = PO, read-out: SA Smith septicemia PD50 PO

SMILES	log reduction at 2 mg/kg [1, 5]	log reduction at 50 mg/kg [2]	responders at 3 mg/kg [3] [%]	responders at 30 mg/kg [3] [%]	clearance ([4]; IV 1 mg/kg) [mL/min/kg]	bioavailability [4] [%]	AUC [4, 6] [ng·h/mL]	Cmax ([4]; IV 1 mg/kg) [ng/mL]	AUC [4, 7] [ng·h/mL]	ED50 [3, 9] [mg/kg]	other results
CCN(Cc1cc(O)c2c(c1Cl)C[C@H]1C[C@H]3[C@H](N(C)C)C(O)=C(C(N)=O)C(=O)[C@@]3(O)C(O)=C1C2=O)[C@H](C)C(C)(C)C [Compound S15-13-122]	2.64	1.84									
CN(C)c1c(CN2CCCCC2)cc(O)c2c1C[C@H]1C[C@H]3[C@H](N(C)C)C(O)=C(C(N)=O)C(=O)[C@@]3(O)C(O)=C1C2=O [Compound S16-10-161]	1.85	1.04	100	100	12.8	31.6	1310	689	4440		EC200 UTI IV, log10 reduction in CFUs in the kidney versus untreated controls ([1]; IV, @ 5 mpk in cells (column head 3 mg/kg)): @ 5 mpk −3.99 log10; KP453 ESBL UTI IV, log10 reduction in CFUs in the kidney versus untreated controls ([2]; IV 20 mg/kg): −3.09 log10; bioavailability (Monkey PK; PO 10 mg/kg vs IV 1 mg/kg, read-out: % F (oral bioavailability), monkey): 42.7%; clearance (Monkey PK; single IV dose of 1 mg/kg, read-out: Cl, IV, monkey (printed C1, mL/hr) (converted)): 184 mL/h; Vd (Monkey PK; single IV dose of 1 mg/kg, read-out: Vdss, IV, monkey (unit inferred)): 4.05 L/kg; AUC (Monkey PK; single IV dose of 1 mg/kg, read-out: AUC, IV, monkey): 5680 ng·h/mL; Cmax (Monkey PK; single IV dose of 1 mg/kg, read-out: Cmax, IV, monkey (unit inferred)): 861 ng/mL; AUC (Monkey PK; single PO dose of 10 mg/kg, read-out: AUC, oral, monkey): 26000 ng·h/mL; Cmax (Monkey PK; single PO dose of 10 mg/kg, read-out: Cmax, oral, monkey): 982 ng/mL
COc1c(CN2CCCC[C@@H]2C)cc(O)c2c1C[C@H]1C[C@H]3[C@H](N(C)C)C(O)=C(C(N)=O)C(=O)[C@@]3(O)C(O)=C1C2=O [Compound S24-9-17]	2.61	2.41	100	100							
COc1c(CN2[C@H](C)CCC[C@@H]2C)cc(O)c2c1C[C@H]1C[C@H]3[C@H](N(C)C)C(O)=C(C(N)=O)C(=O)[C@@]3(O)C(O)=C1C2=O [Compound S24-9-25]	2.99	1.71	100	100							
CC1CCN(Cc2cc(O)c3c(c2F)C[C@H]2C[C@H]4[C@H](N(C)C)C(O)=C(C(N)=O)C(=O)[C@@]4(O)C(O)=C2C3=O)CC1 [Compound S2-4-19]	1.91	1.27	100	83	5	14.9	3320	518	4980	14.3	ED50 [3, 8]: 1 mg/kg
C[C@H]1CCCCN1Cc1cc(O)c2c(c1F)C[C@H]1C[C@H]3[C@H](N(C)C)C(O)=C(C(N)=O)C(=O)[C@@]3(O)C(O)=C1C2=O [Compound S2-4-65]	3.18	2.28	100	100						8.4	log reduction at 12 mg/kg ([1]; Escherichia coli, po, 36 h, PO @ 12 mpk, read-out: EC200 UTI PO, log10 reduction in CFUs in the kidney versus untreated controls): 4.61
CN(C)[C@@H]1C(O)=C(C(N)=O)C(=O)[C@@]2(O)C(O)=C3C(=O)c4c(O)cc(CN5CCCC5)c(C(F)(F)F)c4C[C@H]3C[C@@H]12 [Compound S25-11-1]	3.97	1.84	100	100							
C[C@H]1CCCN1Cc1cc(O)c2c(c1Cl)C[C@H]1C[C@H]3[C@H](N(C)C)C(O)=C(C(N)=O)C(=O)[C@@]3(O)C(O)=C1C2=O [Compound S15-13-194]	3.44	2.18	100	100							
CN(C)[C@@H]1C(O)=C(C(N)=O)C(=O)[C@@]2(O)C(O)=C3C(=O)c4c(O)cc(CN5CCCC5)c(F)c4C[C@H]3C[C@@H]12 [Compound S3-5-5]	2.26	1.01	100	100							
CN(C)[C@@H]1C(O)=C(C(N)=O)C(=O)[C@@]2(O)C(O)=C3C(=O)c4c(O)cc(CN(C)C(C)(C)C)c(Cl)c4C[C@H]3C[C@@H]12 [Compound S15-13-15]	2.82	1.45	100	100	15.4	21	1100	154	2260	3.5	
CN(C)[C@@H]1C(O)=C(C(N)=O)C(=O)[C@@]2(O)C(O)=C3C(=O)c4c(O)cc(CN5CCCC5(C)C)c(F)c4C[C@H]3C[C@@H]12 [Compound S2-4-12]	2.51	2.15	100	100	21.3	14.6	754	126	1160	2.1	ED50 [3, 8]: 0.69 mg/kg
CN(C)[C@@H]1C(O)=C(C(N)=O)C(=O)[C@@]2(O)C(O)=C3C(=O)c4c(O)cc(CN5CCCC5(C)C)c(Cl)c4C[C@H]3C[C@@H]12 [Compound S15-13-4]	3.17	1.69	100	100						6.2	
